Experimental data from ChEMBL document CHEMBL1158657, “Improved antitumor activity by modification of nogalamycin” (1979).
Active and inactive are the calls of the source. The rule behind the calls is not given here.

Legend:
P388 [1] = assay: Antitumor activity against mouse P388 cells xenografted in mouse assessed as increase in life span at 100 mg/kg/day, ip after 9 days; format: functional; conditions: route intraperitoneal
L1210 [2] = assay: Cytotoxicity against mouse L1210 cells; format: functional; conditions: for IC50: Mus musculus
B16 [3] = assay: Antitumor activity against mouse B16 cells xenografted in mouse assessed as increase in life span at 0.5 mg/kg/day, ip after 9 days; format: functional; conditions: route intraperitoneal
B16 [4] = assay: Antitumor activity against mouse B16 cells xenografted in mouse assessed as increase in life span at 2 mg/kg/day, ip after 9 days; format: functional; conditions: route intraperitoneal
P388 [5] = assay: Antitumor activity against mouse P388 cells xenografted in mouse assessed as increase in life span at 0.5 mg/kg/day, ip after 9 days; format: functional; conditions: route intraperitoneal
P388 [6] = assay: Antitumor activity against mouse P388 cells xenografted in mouse assessed as increase in life span at 12.5 mg/kg/day, po after 9 days; format: functional
L1210 [7] = assay: Antitumor activity against mouse L1210 cells xenografted in mouse assessed as increase in life span at 1 mg/kg/day, ip after 9 days; format: functional; conditions: route intraperitoneal
L1210 [8] = assay: Antitumor activity against mouse L1210 cells xenografted in mouse assessed as increase in life span at 2 mg/kg/day, ip after 9 days; format: functional; conditions: route intraperitoneal
B16 [9] = assay: Antitumor activity against mouse B16 cells xenografted in mouse assessed as increase in life span at 0.25 mg/kg/day, ip after 9 days; format: functional; conditions: route intraperitoneal
L1210 [10] = assay: Antitumor activity against mouse L1210 cells xenografted in mouse assessed as increase in life span at 0.25 mg/kg/day, ip after 9 days; format: functional; conditions: route intraperitoneal
P388 [11] = assay: Antitumor activity against mouse P388 cells xenografted in mouse assessed as increase in life span at 1 mg/kg/day, iv after 9 days; format: functional
P388 [12] = assay: Antitumor activity against mouse P388 cells xenografted in mouse assessed as increase in life span at 2 mg/kg/day, ip after 9 days; format: functional; conditions: route intraperitoneal
P388 [13] = assay: Antitumor activity against mouse P388 cells xenografted in mouse assessed as increase in life span at 1 mg/kg/day, ip after 9 days; format: functional; conditions: route intraperitoneal
P388 [14] = assay: Antitumor activity against mouse P388 cells xenografted in mouse assessed as increase in life span at 0.5 mg/kg/day, iv after 9 days; format: functional
B16 [15] = assay: Antitumor activity against mouse B16 cells xenografted in mouse assessed as increase in life span at 1 mg/kg/day, ip after 9 days; format: functional; conditions: route intraperitoneal
L1210 [16] = assay: Antitumor activity against mouse L1210 cells xenografted in mouse assessed as increase in life span at 0.5 mg/kg/day, ip after 9 days; format: functional; conditions: route intraperitoneal
P388 [17] = assay: Antitumor activity against mouse P388 cells xenografted in mouse assessed as increase in life span at 0.25 mg/kg/day, ip after 9 days; format: functional; conditions: route intraperitoneal
P388 [18] = assay: Antitumor activity against mouse P388 cells xenografted in mouse assessed as increase in life span at 2 mg/kg/day, iv after 9 days; format: functional
P388 [19] = assay: Antitumor activity against mouse P388 cells xenografted in mouse assessed as increase in life span at 0.25 mg/kg/day, iv after 9 days; format: functional
L1210 [20] = assay: Inhibition of protein synthesis in mouse L1210 cells; format: functional, cell-based
L1210 [21] = assay: Inhibition of DNA synthesis in mouse L1210 cells; format: functional; conditions: read-out: ID50 (the source's name)
B16 [22] = assay: Antitumor activity against mouse B16 cells xenografted in mouse assessed as increase in life span at 0.5 to 1 mg/kg/day, ip after 9 days; format: functional; conditions: route intraperitoneal
L1210 [23] = assay: Inhibition of RNA synthesis in mouse L1210 cells at 10 nmole/ml; format: functional
L1210 [24] = assay: Inhibition of RNA synthesis in mouse L1210 cells; format: functional; conditions: read-out: ID50 (the source's name)
P388 [25] = assay: Antitumor activity against mouse P388 cells xenografted in mouse assessed as increase in life span at 4 mg/kg/day, ip after 9 days; format: functional; conditions: route intraperitoneal
P388 [26] = assay: Antitumor activity against mouse P388 cells xenografted in mouse assessed as increase in life span at 6.3 mg/kg/day, ip after 9 days; format: functional; conditions: route intraperitoneal
L1210 [27] = assay: Antitumor activity against mouse L1210 cells xenografted in mouse assessed as increase in life span at 2.5 mg/kg/day, ip after 9 days; format: functional; conditions: route intraperitoneal
P388 [28] = assay: Antitumor activity against mouse P388 cells xenografted in mouse assessed as increase in life span at 5 mg/kg/day, ip after 9 days; format: functional; conditions: route intraperitoneal
B16 [29] = assay: Antitumor activity against mouse B16 cells xenografted in mouse assessed as increase in life span at 2 to 5 mg/kg/day, ip after 9 days; format: functional; conditions: route intraperitoneal
B16 [30] = assay: Antitumor activity against mouse B16 cells xenografted in mouse assessed as increase in life span at 16 mg/kg/day, ip after 9 days; format: functional; conditions: route intraperitoneal
P388 [31] = assay: Antitumor activity against mouse P388 cells xenografted in mouse assessed as increase in life span at 12.5 mg/kg/day, ip after 9 days; format: functional; conditions: route intraperitoneal
P388 [32] = assay: Antitumor activity against mouse P388 cells xenografted in mouse assessed as increase in life span at 70 mg/kg/day, ip after 9 days; format: functional; conditions: route intraperitoneal
L1210 [33] = assay: Antitumor activity against mouse L1210 cells xenografted in mouse assessed as increase in life span at 50 mg/kg/day, ip after 9 days; format: functional; conditions: route intraperitoneal
P388 [34] = assay: Antitumor activity against mouse P388 cells xenografted in mouse assessed as increase in life span at 25 mg/kg/day, ip after 9 days; format: functional; conditions: route intraperitoneal
B16 [35] = assay: Antitumor activity against mouse B16 cells xenografted in mouse assessed as increase in life span at 50 mg/kg/day, ip after 9 days; format: functional; conditions: route intraperitoneal
L1210 [36] = assay: Antitumor activity against mouse L1210 cells xenografted in mouse assessed as increase in life span at 20 mg/kg/day, ip after 9 days; format: functional; conditions: route intraperitoneal
P388 [37] = assay: Antitumor activity against mouse P388 cells xenografted in mouse assessed as increase in life span at 20 mg/kg/day, ip after 9 days; format: functional; conditions: route intraperitoneal
B16 [38] = assay: Antitumor activity against mouse B16 cells xenografted in mouse assessed as increase in life span at 12 mg/kg/day, ip after 9 days; format: functional; conditions: route intraperitoneal
P388 [39] = assay: Antitumor activity against mouse P388 cells xenografted in mouse assessed as increase in life span at 6.5 mg/kg/day, ip after 9 days; format: functional; conditions: route intraperitoneal
P388 [40] = assay: Antitumor activity against mouse P388 cells xenografted in mouse assessed as increase in life span at 3.1 mg/kg/day, ip after 9 days; format: functional; conditions: route intraperitoneal
[41] = L1210, read-out: ID50 (the source's name)

Structure (SMILES): CN(C)[C@H]1[C@H](O)[C@@H]2Oc3c(cc(O)c4c3C(=O)c3cc5c(c(O)c3C4=O)CC[C@](C)(O)C5)[C@@](C)(O2)[C@@H]1O
- Activity (P388 [1]): 21%
- ID95 (L1210 [2]): 1760 nM
- IC50 (L1210 [2]; [41]): 940 nM

Structure (SMILES): COc1cccc2c1C(=O)c1c(O)c3c(c(O)c1C2=O)C[C@@](O)(C(=O)CO)C[C@@H]3O[C@H]1C[C@H](N)[C@H](O)[C@H](C)O1 [DOXORUBICIN]
- Activity (B16 [3]): 160%
- Activity (B16 [4]): 158%
- Activity (P388 [5]): 137%
- Activity (P388 [6]): inactive
- Activity (L1210 [7]): 38%
- Activity (L1210 [8]): 40%
- Activity (B16 [9]): 127%
- Activity (L1210 [10]): 20%
- Activity (P388 [11]): 10%
- Activity (P388 [12]): 7%
- Activity (P388 [13]): 158%
- Activity (P388 [14]): 3%
- Activity (B16 [15]): 166%
- Activity (L1210 [16]): 29%
- Activity (P388 [17]): 61%
- Activity (P388 [18]): 29%
- Activity (P388 [19]): 8%

Structure (SMILES): COC(=O)[C@@H]1c2cc3c(c(O)c2[C@@H](O[C@@H]2O[C@@H](C)[C@H](OC)[C@@](C)(OC)[C@H]2OC)C[C@]1(C)O)C(=O)c1c(O)cc2c(c1C3=O)O[C@@H]1O[C@@]2(C)[C@H](O)[C@@H](N(C)C)[C@@H]1O [NOGALAMYCIN]
- Activity (L1210 [7]): 30%
- Activity (L1210 [20]): inactive
- IC50 (L1210 [21]): 3300 nM
- Activity (P388 [13]): 49%
- ID95 (L1210 [2]): 0.18 µg/mL
- IC50 (L1210 [2]; L1210, read-out: ID50): 0.078 µg/mL
- Activity (B16 [22]): 71%
- inhibition (INH) (L1210 [23]): 99.9%
- IC50 (L1210 [24]): 400 nM

Structure (SMILES): CC(C)O[C@H]1C[C@@](C)(O)Cc2cc3c(c(O)c21)C(=O)c1c(O)cc2c(c1C3=O)O[C@@H]1O[C@@]2(C)[C@H](O)[C@@H](N(C)C)[C@@H]1O
- Activity (P388 [25]): 20%

Structure (SMILES): CCCO[C@H]1C[C@@](C)(O)Cc2cc3c(c(O)c21)C(=O)c1c(O)cc2c(c1C3=O)O[C@@H]1O[C@@]2(C)[C@H](O)[C@@H](N(C)C)[C@@H]1O
- Activity (P388 [26]): 34%
- IC50 (L1210 [2]; L1210, read-out: ID50): 0.1 µg/mL

Structure (SMILES): CO[C@H]1[C@H](O[C@H]2C[C@](C)(O)Cc3cc4c(c(O)c32)C(=O)c2c(O)cc3c(c2C4=O)O[C@@H]2O[C@@]3(C)[C@H](O)[C@@H](N(C)C)[C@@H]2O)O[C@@H](C)[C@H](OC)[C@@]1(C)OC [DISNOGAMYCIN]
- Activity (L1210 [27]): 27%
- Activity (P388 [28]): 93%
- IC50 (L1210 [21]): 3000 nM
- ID95 (L1210 [2]): 0.27 µg/mL
- IC50 (L1210 [2]; L1210, read-out: ID50): 0.18 µg/mL
- Activity (B16 [29]): 61%
- IC50 (L1210 [24]): 500 nM

Structure (SMILES): CO[C@H]1C[C@](C)(O)Cc2cc3c(c(O)c21)C(=O)c1c(O)cc2c(c1C3=O)O[C@@H]1O[C@@]2(C)[C@H](O)[C@@H](N(C)C)[C@@H]1O
- Activity (B16 [30]): 105%
- Activity (P388 [31]): 76%
- IC50 (L1210 [21]): 11600 nM
- IC50 (L1210 [2]; L1210, read-out: ID50): 0.41 µg/mL
- inhibition (INH) (L1210 [23]): 91.2%
- IC50 (L1210 [24]): 8300 nM

Structure (SMILES): COC(=O)c1c(C)ccc2c(O)c3c(cc12)C(=O)c1c2c(cc(O)c1C3=O)[C@@]1(C)O[C@@H](O2)[C@@H](O)[C@H](N(C)C)[C@H]1O [NOGALARENE]
- Activity (P388 [32]): 50%
- ID95 (L1210 [2]): 580 nM
- IC50 (L1210 [2]; [41]): 240 nM

Structure (SMILES): COC(=O)[C@@H]1c2cc3c(c(O)c2[C@@H](OC)C[C@]1(C)O)C(=O)c1c(O)cc2c(c1C3=O)O[C@@H]1O[C@@]2(C)[C@H](O)[C@@H](N(C)C)[C@@H]1O
- Activity (L1210 [33]): 12%
- Activity (P388 [34]): 60%
- Activity (B16 [35]): 84%
- IC50 (L1210 [21]): 3800 nM
- IC50 (L1210 [2]; L1210, read-out: ID50): 0.27 µg/mL
- IC50 (L1210 [24]): 500 nM

Structure (SMILES): CO[C@H]1[C@H](O[C@H]2C[C@](C)(O)[C@H](C(=O)O)c3cc4c(c(O)c32)C(=O)c2c(O)cc3c(c2C4=O)O[C@@H]2O[C@@]3(C)[C@H](O)[C@@H](N(C)C)[C@@H]2O)O[C@@H](C)[C@H](OC)[C@@]1(C)OC [NOGALAMYCINIC ACID]
- Activity (L1210 [36]): 18%
- Activity (P388 [37]): 56%
- ID95 (L1210 [2]): 1.94 µg/mL
- IC50 (L1210 [2]; L1210, read-out: ID50): 1 µg/mL
- inhibition (INH) (L1210 [23]): 86.7%

Structure (SMILES): CCO[C@H]1C[C@@](C)(O)Cc2cc3c(c(O)c21)C(=O)c1c(O)cc2c(c1C3=O)O[C@@H]1O[C@@]2(C)[C@H](O)[C@@H](N(C)C)[C@@H]1O
- Activity (B16 [38]): 25%
- Activity (P388 [39]): 63%
- IC50 (L1210 [21]): 10600 nM
- IC50 (L1210 [2]; L1210, read-out: ID50): 0.16 µg/mL
- IC50 (L1210 [24]): 5200 nM

Structure (SMILES): CCCO[C@H]1C[C@](C)(O)Cc2cc3c(c(O)c21)C(=O)c1c(O)cc2c(c1C3=O)O[C@@H]1O[C@@]2(C)[C@H](O)[C@@H](N(C)C)[C@@H]1O
- Activity (P388 [40]): 50%
- IC50 (L1210 [2]; L1210, read-out: ID50): 0.33 µg/mL
